Measured values as given in ChEMBL document CHEMBL2440019, “Discovery of an in vivo chemical probe of the lysine methyltransferases G9a and GLP” (J Med Chem, 2013).

Legend:
Plasma [1] = assay: Cmax in Swiss albino mouse plasma at 5 mg/kg, ip; type: ADME, organism-based; set-up: dose 5 mg/kg, route intraperitoneal; conditions: in vivo
Liver = assay: Half life in mouse liver microsomes; type: ADME, Microsome
Plasma [2] = assay: AUC (0 to 24 hrs) in Swiss albino mouse plasma at 5 mg/kg, ip; type: ADME, organism-based; set-up: time < 24 hr, dose 5 mg/kg, route intraperitoneal; conditions: in vivo
[3] = target: T1, Histone-lysine N-methyltransferase EHMT2 (Homo sapiens, UniProt Q96KQ7)
T1 sequence (Q96KQ7 whole entry): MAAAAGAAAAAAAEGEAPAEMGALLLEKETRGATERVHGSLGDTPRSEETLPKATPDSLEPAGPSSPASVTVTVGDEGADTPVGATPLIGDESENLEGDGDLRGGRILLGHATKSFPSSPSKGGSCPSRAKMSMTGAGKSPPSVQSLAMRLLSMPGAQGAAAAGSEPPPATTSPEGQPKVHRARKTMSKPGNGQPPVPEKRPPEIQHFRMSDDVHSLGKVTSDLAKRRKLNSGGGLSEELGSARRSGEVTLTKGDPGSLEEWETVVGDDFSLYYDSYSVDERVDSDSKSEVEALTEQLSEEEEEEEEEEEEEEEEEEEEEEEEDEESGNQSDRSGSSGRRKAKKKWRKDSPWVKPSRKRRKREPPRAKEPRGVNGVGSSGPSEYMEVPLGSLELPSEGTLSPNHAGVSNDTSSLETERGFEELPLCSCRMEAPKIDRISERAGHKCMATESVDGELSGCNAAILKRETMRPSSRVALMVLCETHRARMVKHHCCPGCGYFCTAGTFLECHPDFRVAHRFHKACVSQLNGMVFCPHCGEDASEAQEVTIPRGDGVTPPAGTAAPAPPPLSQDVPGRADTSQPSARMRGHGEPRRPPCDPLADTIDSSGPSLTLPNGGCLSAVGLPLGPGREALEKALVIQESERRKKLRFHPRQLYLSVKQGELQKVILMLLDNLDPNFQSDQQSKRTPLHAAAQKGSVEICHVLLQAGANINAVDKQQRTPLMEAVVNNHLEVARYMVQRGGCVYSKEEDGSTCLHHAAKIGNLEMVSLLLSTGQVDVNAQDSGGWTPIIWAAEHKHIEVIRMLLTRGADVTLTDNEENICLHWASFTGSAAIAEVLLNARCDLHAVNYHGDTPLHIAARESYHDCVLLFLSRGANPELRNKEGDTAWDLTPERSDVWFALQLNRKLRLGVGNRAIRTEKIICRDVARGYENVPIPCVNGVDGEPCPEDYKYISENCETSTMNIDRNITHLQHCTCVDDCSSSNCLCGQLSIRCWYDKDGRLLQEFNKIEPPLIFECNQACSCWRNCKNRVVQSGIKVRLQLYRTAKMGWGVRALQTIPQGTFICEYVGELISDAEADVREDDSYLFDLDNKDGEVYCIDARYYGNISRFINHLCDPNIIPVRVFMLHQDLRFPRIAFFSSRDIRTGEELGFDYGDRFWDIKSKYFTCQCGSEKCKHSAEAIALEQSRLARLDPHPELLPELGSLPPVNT
Description: Inhibition of lysine methyltransferase G9a (unknown origin) using [3H]-SAM as substrate after 0.25 hrs by scintillation proximity assay

MDA-MB-231 = assay: cells; conditions: Homo sapiens, MDA-MB-231, 48 h
Description: Cytotoxicity against human MDA-MB-231 cells after 48 hrs by Alamar Blue assay

[4] = target: T1, Histone-lysine N-methyltransferase EHMT2; remark: listed apart in the source
Description: Inhibition of lysine methyltransferase G9a in human MDA-MB-231 cells assessed as reduction of H3K9me2 cellular level by immunofluorescence in-cell Western assay

U2OS = assay: Cytotoxicity against human U2OS cells after 48 hrs by Alamar Blue assay; type: cell-based
[5] = target: T2, Alpha-1D adrenergic receptor (Homo sapiens, UniProt P25100); assay: Binding affinity to adrenergic alpha1D receptor (unknown origin) by radioligand binding assay
T2 sequence (P25100 whole entry): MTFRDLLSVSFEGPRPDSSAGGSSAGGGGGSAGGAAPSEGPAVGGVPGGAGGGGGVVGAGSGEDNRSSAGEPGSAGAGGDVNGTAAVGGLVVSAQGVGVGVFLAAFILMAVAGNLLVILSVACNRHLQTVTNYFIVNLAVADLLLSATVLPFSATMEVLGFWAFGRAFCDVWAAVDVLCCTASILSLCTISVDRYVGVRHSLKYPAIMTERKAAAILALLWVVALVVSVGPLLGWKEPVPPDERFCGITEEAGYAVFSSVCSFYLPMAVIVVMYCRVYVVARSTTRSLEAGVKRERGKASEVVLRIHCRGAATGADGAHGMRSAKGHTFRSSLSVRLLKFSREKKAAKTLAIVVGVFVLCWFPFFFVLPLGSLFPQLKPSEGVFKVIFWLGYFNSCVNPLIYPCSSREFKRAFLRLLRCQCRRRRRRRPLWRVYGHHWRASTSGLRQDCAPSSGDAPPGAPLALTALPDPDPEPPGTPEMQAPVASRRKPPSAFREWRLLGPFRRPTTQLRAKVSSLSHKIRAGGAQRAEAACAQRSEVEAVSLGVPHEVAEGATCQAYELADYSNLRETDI

[6] = Binding affinity to sigma 2 receptor (unknown origin) by radioligand binding assay; set-up: species or system Homo sapiens
PANC-1 = assay: Cytotoxicity against human PANC1 cells after 48 hrs by Alamar Blue assay; type: cell-based; conditions: PANC-1, 48 h
PC-3 = assay: Cytotoxicity against human PC3 cells after 48 hrs by Alamar Blue assay; type: cell-based; conditions: PC-3, 48 h
Nucleic Acid = assay: Ratio of drug level in brain to plasma in Swiss albino mouse at 5 mg/kg, ip; type: ADME, organism-based; set-up: dose 5 mg/kg, route intraperitoneal
[7] = Cmax in Swiss albino mouse brain at 5 mg/kg, ip; type: ADME, organism-based; set-up: dose 5 mg/kg, route intraperitoneal
Histamine H3 receptor = Histamine H3 receptor (Homo sapiens, UniProt Q9Y5N1); assay: Binding affinity to histamine H3 receptor (unknown origin) by radioligand binding assay
Sequence of Histamine H3 receptor (Q9Y5N1 whole entry): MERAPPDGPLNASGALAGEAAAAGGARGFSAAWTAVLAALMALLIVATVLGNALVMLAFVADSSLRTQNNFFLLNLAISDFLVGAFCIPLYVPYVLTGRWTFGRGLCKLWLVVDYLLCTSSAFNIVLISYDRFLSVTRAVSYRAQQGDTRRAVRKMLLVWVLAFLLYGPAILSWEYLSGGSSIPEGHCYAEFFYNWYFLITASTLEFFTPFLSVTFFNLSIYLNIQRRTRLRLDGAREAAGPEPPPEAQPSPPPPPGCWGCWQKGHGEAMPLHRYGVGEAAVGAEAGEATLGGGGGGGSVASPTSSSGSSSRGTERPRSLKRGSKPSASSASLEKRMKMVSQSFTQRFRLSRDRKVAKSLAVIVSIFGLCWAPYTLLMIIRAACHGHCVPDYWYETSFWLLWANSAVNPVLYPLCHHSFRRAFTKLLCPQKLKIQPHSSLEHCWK

[8] = target: T3, Alpha-2C adrenergic receptor (Homo sapiens, UniProt P18825); assay: Binding affinity to adrenergic alpha2C receptor (unknown origin) by radioligand binding assay
T3 sequence (P18825 whole entry): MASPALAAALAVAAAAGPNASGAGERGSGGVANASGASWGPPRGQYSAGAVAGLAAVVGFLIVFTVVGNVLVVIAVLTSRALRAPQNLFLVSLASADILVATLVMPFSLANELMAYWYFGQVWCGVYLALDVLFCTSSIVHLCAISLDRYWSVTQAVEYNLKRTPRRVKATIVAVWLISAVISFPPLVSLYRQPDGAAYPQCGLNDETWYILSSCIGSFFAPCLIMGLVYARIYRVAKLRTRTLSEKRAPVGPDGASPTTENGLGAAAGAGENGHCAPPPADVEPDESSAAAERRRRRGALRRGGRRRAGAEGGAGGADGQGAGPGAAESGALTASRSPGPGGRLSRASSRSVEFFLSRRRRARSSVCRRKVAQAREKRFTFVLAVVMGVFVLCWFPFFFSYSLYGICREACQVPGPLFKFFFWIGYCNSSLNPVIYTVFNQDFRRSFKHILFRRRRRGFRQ

[9] = AUC (0 to 24 hrs) in Swiss albino mouse brain at 5 mg/kg, ip; type: ADME, organism-based; set-up: time < 24 hr, dose 5 mg/kg, route intraperitoneal

Structure (SMILES): COc1cc2c(NC3CCN(C(C)C)CC3)nc(C3CCCCC3)nc2cc1OCCCN1CCCC1
- Cmax (Plasma [1]): 0.066 µg/mL
- t1/2 (Liver): 1.22 h
- AUC (Plasma [2]): 0.404 µg·h/mL

Structure (SMILES): COc1cc2c(NC3CCN(C(C)C)CC3)nc(N3CCCCCC3)nc2cc1OCCCN1CCCC1
- IC50 [3]: < 0.0025 µM

Structure (SMILES): COc1cc2c(NC3CCN(C(C)C)CC3)nc(N3CCS(=O)(=O)CC3)nc2cc1OCCCN1CCCC1
- IC50 [3]: 0.014 µM

Structure (SMILES): COc1cc2c(NC3CCN(C(C)C)CC3)nc(C3CCOCC3)nc2cc1OCCCN1CCCC1
- EC50 (MDA-MB-231): > 50 µM
- t1/2 (Liver): 0.267 h
- IC50 [4]: 0.31 µM
- IC50 [3]: 0.009 µM

Structure (SMILES): COc1cc2c(NC3CCN(C(C)C)CC3)nc(N3CCC(F)(F)CC3)nc2cc1OCCCN1CCCC1
- EC50 (U2OS): 6 µM
- Ki [5]: 4.5 µM
- Cmax (Plasma [1]): 0.947 µg/mL
- Ki [6]: 0.9 µM
- EC50 (MDA-MB-231): 16.7 µM
- EC50 (PANC-1): 3.5 µM
- EC50 (PC-3): 8.9 µM
- BPR (Nucleic Acid): 0.33
- t1/2 (Liver): > 1.5 h
- Cmax [7]: 0.068 µg/mL
- Ki (Histamine H3 receptor): 0.045 µM
- Ki [8]: > 10 µM
- AUC(0-t) at 24 h [9]: 0.412 µg·h/mL
- AUC (Plasma [2]): 1.265 µg·h/mL

Structure (SMILES): COc1cc2c(NC3CCN(C(C)C)CC3)nc(C3CCOCC3)nc2cc1OCCCN1CCC(F)(F)CC1
- t1/2 (Liver): 0.167 h
- IC50 [3]: > 50 µM

Structure (SMILES): COc1cc2c(NC3CCN(C(C)C)CC3)nc(C3CCCCC3)nc2cc1OCCCN1CCC(F)(F)CC1
- IC50 [3]: > 26 µM

Structure (SMILES): COc1cc2c(NC3CCN(C4CC4)CC3)nc(N3CCC(F)(F)CC3)nc2cc1OCCCN1CCCC1
- EC50 (MDA-MB-231): 14.7 µM
- IC50 [4]: 0.31 µM
- IC50 [3]: 0.003 µM

Structure (SMILES): COc1cc2c(NC3CCN(C(C)C)CC3)nc(N3CCOCC3)nc2cc1OCCCN1CCCC1
- Cmax (Plasma [1]): 0.731 µg/mL
- EC50 (MDA-MB-231): 23.7 µM
- BPR (Nucleic Acid): 0.68
- t1/2 (Liver): > 1.5 h
- Cmax [7]: 0.099 µg/mL
- AUC(0-t) at 24 h [9]: 0.721 µg·h/mL
- AUC (Plasma [2]): 1.061 µg·h/mL

Structure (SMILES): COc1cc2c(NC3CCN(C4CC4)CC3)nc(N3CCS(=O)(=O)CC3)nc2cc1OCCCN1CCCC1
- EC50 (MDA-MB-231): > 50 µM
- IC50 [4]: 0.59 µM
- IC50 [3]: 0.004 µM

Structure (SMILES): COc1cc2c(NC3CCN(C(C)C)CC3)nc(N3CC(F)(F)C(F)(F)C3)nc2cc1OCCCN1CCCC1
- t1/2 (Liver): > 1.5 h
- IC50 [3]: 0.026 µM

Structure (SMILES): COc1cc2c(NC3CCN(C(C)C)CC3)nc(N3CCCCC3)nc2cc1OCCCN1CCCC1
- IC50 [3]: < 0.0025 µM
